{"source": "patent US20110152294A1", "about": "“USE OF OSMOLYTES OBTAINED FROM EXTREMOPHILIC BACTERIA FOR THE PRODUCTION OF INHALABLE MEDICAMENTS FOR THE PROPHYLAXIS AND TREATMENT OF PULMONARY AND CARDIOVASCULAR DISEASES AND AN INHALATION DEVICE COMPRISING OSMOLYTE AS ACTIVE AGENT COMPONENT” (priority 2003, published 2011)", "origin": "cited, not measured here", "system": "cornea and iris of the eyes of rabbits", "conditions": "external application on cornea and iris of rabbit eyes; effects disappeared afterwards"}
{"smiles": "CC1=NC[C@H](O)[C@@H](C(=O)O)N1", "note": "[hydroxyectoine]", "values": [{"measurement": "eye irritation after external application", "value": "initial irritation and sensitization of the conjunctiva"}]}
